US6617450B1, “P-glycoproteins and uses thereof” (Becton Dickinson and Company, priority 1999, dated 2003)

Test system: cynomologous monkey PGP
Assay: Polarization of vinblastine transport across cynomologous monkey PGP transfected LLC-PK1 cell monolayers in Transwells
Type: cell-based, cynomologous monkey (Macaca fascicularis)
Conditions: PGP transfected cells, relative to control cells; vinblastine (0.1 μM) transport in Transwells
Text: Cynomologous monkey PGP cDNA (SEQ ID NO:3) is introduced into a clonal population of LLC-PK 1 cells in a vector that confers resistance to hygromycin B. LLC-PK1 cells are obtained from the American Type Culture Collections and are propagated in Medium 199 supplemented to 7% with fetal bovine serum. LLC-PK1 cells are recloned prior to transfection in order to assure homogeneity of the cell population. Briefly, cynomologous monkey PGP cDNA is incorporated into the p222CMV vector. […] The PGP cDNA is under the control of the cytomegalovirus (CMV) immediate early promoter. […] Expression of PGP is measured by the polarization of vinblastine (0.1 μM) transport in Transwells™.
LLC-PK1 cell based transport studies are conducted in 24 well Transwells™(Corning Costar, Catalog number 3415). […] Transport is measured under sink conditions in both the apical to basolateral (A to B) and basolateral to apical (B to A) directions. […] Quantitation of the amount of compound transported is by liquid scintillation counting (vinblastine) or HPLC with UV or mass spectrometric detection.
Functional expression of cynomologous monkey PGP is measured by the polarization of transport of vinblastine.

CC[C@]1(O)C[C@@H]2CN(CCc3c([nH]c4ccccc34)[C@@](C(=O)OC)(c3cc4c(cc3OC)N(C)[C@H]3[C@@](O)(C(=O)OC)[C@H](OC(C)=O)[C@]5(CC)C=CCN6CC[C@]43[C@@H]65)C2)C1 [vinblastine]
B to A/A to B ratio: much higher ratio
